Measurements as given in PubChem BioAssay AID1918994 (Molecular Pharmacology Branch, DTP, NCI, 2023).
pIC50: −log10 of the molar value. Where “and” joins values, the source holds several entries; their conditions need not be identical. Identical values can stand only once.

Test system: 292921-168-R-J2-PDC complex spheroid growth
Assay: Anticancer human tumor 292921-168-R-J2-PDC patient-derived pancreatic carcinoma cell line growth inhibition [AhR]
Conditions: compound 3.16 µM; stronger effect = lower value
Excerpt: Multicellular complex tumor spheroid response to aryl hydrocarbon receptor antagonists in combination with a variety of drugs and investigational agents in selected tumor cell lines
The current study was undertaken to assess response to aryl hydrocarbon receptor antagonists in combination with standard-of-care drugs and investigational agents in solid tumor complex spheroid models. Complex spheroids include a stromal component modeled by human endothelial cells (HUVEC) and fibroblasts modeled by human mesenchymal stem cells (MSCs). The concentration ranges selected for each drug and investigational agent were based upon clinically achievable concentrations if the clinical Cmax of the agent was known.
Compounds. The drugs and investigational agents: BAY 2416964 (NSC825713), GNF351 (NSC835774), CH-223191 (NSC835775), CPI-455 (NSC825282), aza-TdCyd (NSC777586), decitabine (NSC127716), belinostat (NSC758774), entinostat (NSC756642), pevonedistat (NSC761192), tazemetostat (NSC777109), talazoparib (NSC765396), olaparib (NSC753686), selinexor (NSC780203), nedisertib (M3814, NSC802822), bortezomib (NSC756655), venetoclax (NSC766270), doxorubicin (NSC123127), elimusertib (BAY189344, NSC800525), ceralasertib (AZD6738, NSC777638), TAK-243 (NSC785004), alisertib (NSC759677), etoposide (NSC141540), topotecan (NSC609699), eribulin (NSC707389), gemcitabine (NSC613327), carboplatin (NSC241240), cisplatin (NSC119875), and SN-38 (NSC673596) were obtained from the National Cancer Institute (NCI) Developmental Therapeutics Program Chemical Repository (32). The FDA-approved anticancer drug set is available from the Developmental Therapeutics Program at https://dtp.cancer.gov/organization/dscb/obtaining/available plates.htm. […] The stock solutions were prepared in dimethyl sulfoxide (DMSO, Sigma-Aldrich, St. Louis, MO, cat. D2650), except for the platinum compounds which were prepared in saline (Quality Biological, Gaithersburg, MD, cat. 114-055-101), at 800-fold the tested concentration and stored at -70 degrees C prior to their use. All drugs and investigational agents were tested over a range starting from a high concentration at or near the clinical Cmax and decreasing in half-log increments. If the clinical Cmax for an agent had not been determined, the highest concentration tested was 10 microM (Table 1).
Cell Culture. All cells were maintained in an incubator at 37 degrees C and 5% CO2 with 95% humidity. The PDC lines were cultured according to standard operating procedures established by the NCI PDMR (https://pdmr.cancer.gov). Briefly, all PDCs were thawed and cultured in Matrigel-coated flasks prepared with a working solution of 1X Ham's F-12 nutrient mix, without supplementation (Invitrogen, Waltham, MA, cat. 11765054), 100 U/mL penicillin-streptomycin (Invitrogen, cat. 15140122), and 2.5% Matrigel (Corning Inc., Corning, NY, cat. 354248) for the first three passages. All PDCs were cultured in complete DMEM/F-12 media containing advanced DMEM/F-12 (Invitrogen, cat. 12634028), 4.9% defined fetal bovine serum, heat inactivated (HyClone Laboratories Inc., Logan, UT, cat. SH30070.03HI), 389 ng/mL hydrocortisone (Sigma-Aldrich, cat. H4001), 9.7 ng/mL human EGF recombinant protein (Invitrogen, cat. PHG0313), 23.4 microg/mL adenine (Sigma-Aldrich, cat. A2786), 97.3 U/mL penicillin-streptomycin (Invitrogen, cat. 15140122), 1.9 mM L-glutamine (Invitrogen, cat. 25030081), and 9.7 microM Y-27632 dihydrochloride (Tocris Bioscience, Bristol, United Kingdom, cat. 1254). The PDCs were cultured in complete DMEM/F12 media without 10 microM Y-27632 dihydrochloride for at least two passages prior to the screen. The established cell lines NCI-H1341 and […] were cultured in DMEM/F-12, HEPES (Invitrogen, cat. 11330032), 5% defined fetal bovine serum (HyClone Laboratories Inc., cat. SH30070.03), ITS premix universal culture supplement [insulin (5 microg/mL), transferrin (5 microg/mL), and selenious acid (5 ng/mL)] […]
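Note: spheroids exposed to compounds for seven days after three days of growth.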

Row | Compound | viability, T/C
1 | Nc1ccccc1NC(=O)c1ccc(CNC(=O)OCc2cccnc2)cc1 | 24.4% and 26.4% and 21.3%
2 | Nc1ccn(C2OC(CO)C(O)C2(F)F)c(=O)n1 (centres undefined) | 9.41% and 11.4% and 8.79%
3 | O=C(C=Cc1cccc(S(=O)(=O)Nc2ccccc2)c1)NO | 36.6% and 37.4% and 31.4%
4 | O=C(c1cc(Cc2n[nH]c(=O)c3ccccc23)ccc1F)N1CCN(C(=O)C2CC2)CC1 | 102% and 92.5% and 83.3%

Same assay, conditions: compound 10 µM; stronger effect = lower value

Row | Compound | viability, T/C
5 | CC(C)c1c(-c2ccccc2)nc2c(C#N)c[nH]n2c1=O | 95.3% and 96% and 107%
6 | CC(CO)NC(=O)c1cc(-c2ccc(Cl)cc2)nn(-c2cnn(C)c2)c1=O (centres undefined) | 70.5% [middle of 19 runs]
7 | CC1(C)CCC(CN2CCN(c3ccc(C(=O)NS(=O)(=O)c4ccc(NCC5CCOCC5)c([N+](=O)[O-])c4)c(Oc4cnc5[nH]ccc5c4)c3)CC2)=C(c2ccc(Cl)cc2)C1 | 22.7% and 18.6% and 22.2%
8 | CC1COCCN1c1cc(C2(S(C)(=N)=O)CC2)nc(-c2ccnc3[nH]ccc23)n1 (centres undefined) | 27.7% (2×) and 21.3%
9 | COc1cc(C2c3cc4c(cc3C(OC3OC5COC(C)OC5C(O)C3O)C3COC(=O)C23)OCO4)cc(OC)c1O (centres undefined) | 13.7% and 15.4% and 10.6%
10 | COc1cc(Nc2ncc3c(n2)-c2ccc(Cl)cc2C(c2c(F)cccc2OC)=NC3)ccc1C(=O)O | 41.7% and 31.2% and 30.7%
11 | COc1ccc([C@@H](O)c2cc(-c3ncnc4cc(N5CCOCC5)ccc34)c(F)cc2Cl)nn1 | 27.6% and 24.4% and 25.5%
12 | COc1cccc2c1C(=O)c1c(O)c3c(c(O)c1C2=O)CC(O)(C(=O)CO)CC3OC1CC(N)C(O)C(C)O1 (centres undefined) | 2.02% and 2.08% and 3.06%
13 | Cc1cncc(-c2nc(NCCc3c[nH]c4ccccc34)c3ncn(C(C)C)c3n2)c1 | 47.8% [middle of 20 runs]
14 | NS(=O)(=O)OCC1CC(n2ccc3c(NC4CCc5ccccc54)ncnc32)CC1O (centres undefined) | 5.17% and 3.01% and 3.79%
15 | Nc1ccccc1NC(=O)c1ccc(CNC(=O)OCc2cccnc2)cc1 | 11.8% and 10.3% and 8.62%
16 | Nc1ccn(C2OC(CO)C(O)C2(F)F)c(=O)n1 (centres undefined) | 7.29% and 6.09% and 6.67%
17 | O=C(C=Cc1cccc(S(=O)(=O)Nc2ccccc2)c1)NO | 3.45% and 3.29% and 1.56%
18 | O=C(c1cc(Cc2n[nH]c(=O)c3ccccc23)ccc1F)N1CCN(C(=O)C2CC2)CC1 | 80% and 74.5% and 68%

Same assay, conditions: compound alone; run of 05/31/2022

Row | Compound | pIC50
19 | CC(CO)NC(=O)c1cc(-c2ccc(Cl)cc2)nn(-c2cnn(C)c2)c1=O (centres undefined) | < 5.00

Same assay, conditions: curve of compound

Row | Compound | pIC50
20 | CC(C)CC(NC(=O)C(Cc1ccccc1)NC(=O)c1cnccn1)B(O)O (centres undefined) | 7.99 and 8.16 and 8.23
21 | CC(C)c1c(-c2ccccc2)nc2c(C#N)c[nH]n2c1=O | < 5.00
22 | CC1(C)CCC(CN2CCN(c3ccc(C(=O)NS(=O)(=O)c4ccc(NCC5CCOCC5)c([N+](=O)[O-])c4)c(Oc4cnc5[nH]ccc5c4)c3)CC2)=C(c2ccc(Cl)cc2)C1 | 5.17 and 5.18 and 5.19
23 | CC1COCCN1c1cc(-c2ccnn2C)c2ccnc(-c3ccn[nH]3)c2n1 (centres undefined) | 7.24 and 7.26 and 7.34
24 | CC1COCCN1c1cc(C2(S(C)(=N)=O)CC2)nc(-c2ccnc3[nH]ccc23)n1 (centres undefined) | 5.37 and 5.54 and 5.51
25 | CCN(c1cc(-c2ccc(CN3CCOCC3)cc2)cc(C(=O)NCc2c(C)cc(C)[nH]c2=O)c1C)C1CCOCC1 | < 5.52
26 | CC[C@@]1(O)C(=O)OCc2c1cc1n(c2=O)Cc2cc3c(CN(C)C)c(O)ccc3nc2-1 | 7.34 and 7.51 and 7.61
27 | CCc1c2c(nc3ccc(O)cc13)-c1cc3c(c(=O)n1C2)COC(=O)[C@]3(O)CC | 8.47 and 8.37 and 8.75
28 | COc1cc(C2c3cc4c(cc3C(OC3OC5COC(C)OC5C(O)C3O)C3COC(=O)C23)OCO4)cc(OC)c1O (centres undefined) | 6.11 and 6.15 and 6.35
29 | COc1ccc([C@@H](O)c2cc(-c3ncnc4cc(N5CCOCC5)ccc34)c(F)cc2Cl)nn1 | 5.69 and 5.60 and 5.70
30 | COc1cccc2c1C(=O)c1c(O)c3c(c(O)c1C2=O)CC(O)(C(=O)CO)CC3OC1CC(N)C(O)C(C)O1 (centres undefined) | > 7.50
31 | Cn1ncnc1C1c2n[nH]c(=O)c3cc(F)cc(c23)NC1c1ccc(F)cc1 (centres undefined) | < 7.00
32 | NS(=O)(=O)OCC1CC(n2ccc3c(NC4CCc5ccccc54)ncnc32)CC1O (centres undefined) | 6.65 and 6.76 and 6.66
33 | Nc1ccccc1NC(=O)c1ccc(CNC(=O)OCc2cccnc2)cc1 | 6.57 and 6.34 and 6.82
34 | Nc1ccn(C2OC(CO)C(O)C2(F)F)c(=O)n1 (centres undefined) | > 7.50
35 | Nc1ncn(C2CC(O)C(CO)O2)c(=O)n1 (centres undefined) | < 6.00
36 | Nc1ncn(C2CC(O)C(CO)S2)c(=O)n1 (centres undefined) | < 6.52
37 | O=C(C=Cc1cccc(S(=O)(=O)Nc2ccccc2)c1)NO | 6.37 and 6.26 and 6.60
38 | O=C(C=Cn1cnc(-c2cc(C(F)(F)F)cc(C(F)(F)F)c2)n1)NNc1cnccn1 | 6.72 and 6.81 and 6.89
39 | O=C(c1cc(Cc2n[nH]c(=O)c3ccccc23)ccc1F)N1CCN(C(=O)C2CC2)CC1 | < 5.00
